Results: patent publication US8461389B2, “Psycho-pharmaceuticals” (University College Dublin, National University of Ireland, …, priority 2008, dated 2013)

Tests used:
dopamine D3 receptor = biological target: T1, dopamine D3 receptor (Homo sapiens, UniProt P35462); experiment: Novascreen receptor affinity screen (competition with reference ligand), dopamine D3; format: binding; settings: 1 μM Captodiamine competing with a reference ligand; read-out: percent target inhibition, dopamine D3 receptor
T1 construct: Novascreen (contract screen)
T1 sequence (P35462 whole entry, species assumed): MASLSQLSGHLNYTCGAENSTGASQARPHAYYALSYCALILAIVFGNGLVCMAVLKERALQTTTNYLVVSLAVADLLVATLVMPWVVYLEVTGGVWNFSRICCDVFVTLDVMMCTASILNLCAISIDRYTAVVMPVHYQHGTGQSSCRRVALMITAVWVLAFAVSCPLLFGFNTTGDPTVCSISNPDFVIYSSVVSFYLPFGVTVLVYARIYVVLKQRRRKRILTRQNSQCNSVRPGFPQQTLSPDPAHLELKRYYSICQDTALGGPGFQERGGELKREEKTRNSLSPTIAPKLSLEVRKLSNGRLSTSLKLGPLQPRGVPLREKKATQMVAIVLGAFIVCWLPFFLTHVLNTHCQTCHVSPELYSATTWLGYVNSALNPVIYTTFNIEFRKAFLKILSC
Description: (§1) The Structure (FIG. 9A), receptor affinity (FIG. 9B), pharmacokinetics (FIG. 9C) and growth factor modulation (FIG. 9D) of Captodiamine are provided. Analysis of receptor affinities was performed by Novascreen™ and those displacing >20% of the natural ligand are indicated by the filled boxes. Blood levels of Captodiamine were determined by GC mass spectroscopy. In separate samples taken from a cannulated jugular at increasing time intervals following a single intraperitoneal injection of tha drug (5 mg/kg). Growth factor analysis was performed using tissue homogenates and ELISA assays specific for each growth factor (Promega). Values were analysed using a Student t-test and those with a p value<0.05 were accepted as significant and are indicated with an asterisk.
The higher the target inhibition value, the greater the affinity Captodiamine has for this particular receptor as it displaces a greater proportion of the reference ligand. This assay is an automated high throughput assay performed on cell lines that express only one type of receptor and was carried out by Novascreen (www.novascreen.com). Receptor affinity is a good starting point for determining the mechanism of action for a particular compound.

C57B16 mice = experiment: Pre-pulse inhibition of the startle response; format: in vivo; settings: i.p. once daily for 7 days; FIG. 5
From the text: An example of one way of testing for PPI: In the prepulse inhibition (PPI) procedure, the rodent is placed in a small chamber and exposed to a brief pulse of noise. The test is used to assess the subject's ability to “gate” or filter environmental information. In the acoustic (startle model) of sensorimotor gating, a weak acoustic stimulus (ie, the prepulse) decreases the reflexive flinching response (startle) produced by a second, more intense, stimulus (the pulse).
The main three parts of the procedure are prepulse, startle stimulus, and startle reflex. Different prepulse-to-pulse intervals, or lead intervals, are used: 30, 60, 120, 240 and 480 ms. Lead interval counts from the start of prepulse to the start of the pulse. With the interval exceeding 500 ms, prepulse facilitation, such as increased response, is most likely to follow. Burst of white noise is usually used as acoustic startle stimulus. Typical durations are 20 ms for prepulse and 40 ms for pulse. […] Startle response is measured in rodents using the so-called automated “startle chambers” or “stabilimeter chambers”, with detectors recording whole-body reaction. In humans, the movements of oculomotor muscles (“eye-blink reflex” or “eye-blink response” assessed using electromyographic recording of orbicularis oculi muscle and by oculography) could be used as a measure. […]

[1] = system: BDNF (Brain-derived neurotrophic factor); experiment: BDNF levels in brain regions by ELISA after sub-chronic administration; format: in vivo, mice; settings: sub-chronic 7 day treatment, FIG. 9D
Description: Neurotrophic factor concentration was determined by using an ELISA purchased from Promega Inc;
The Experimental protocol employed in the behavioural evaluation of Captodiamine is set out as follows: Three separate cohorts of C57B16 mice were employed in the behavioural evaluation of Captodiamine (see FIG. 7). Cohort 1 was used to evaluate the drug effect on prepulse inhibition, spatial learning, open-field and novel object recognition. Cohort 2 was used to evaluate drug effects on the forced swim test and the elevated X-maze. The behavioural tests were administered in sequence as per day number indicated in the bar of FIG. 7. The drug was administered by the intraperitoneal route and on the day of training the drug was administered after the behavioural analysis. Cohort 3 was used for analysis of growth factor (GF) expression (such as, for example, Brain Derived Neurotrophic Factor (BDNF and Glial Derived Neurotrophic Factor (GDNF). The brains were removed immediately after sacrifice, the relevant brain areas dissected, homogenised and stored at −80° C. until analysis. Captodiamine/UCD-0620 was administered at doses of 3 and 5 mg/kg. The compound was administered once daily, via the intraperitoneal route, for 7 days prior to testing and the animals were drug-free at time of training.
as §1

SMILES: CCCCSc1ccc(C(SCCN(C)C)c2ccccc2)cc1 (centres unmarked) [Captodiamine, 2-[(4-butylsulfanylphenyl)-phenyl-methyl]sulfanyl-N,N-dimethyl-ethanamin]
- inhibition at 1 µM (dopamine D3 receptor): > 80%
- pre-pulse inhibition of startle (C57B16 mice): no effect
- BDNF expression levels, hippocampus [1]: no effect
- BDNF expression levels, hypothalamus [1]: significantly increased
- BDNF expression levels, prefrontal cortex [1]: no effect
